Test results from patent US5985824A, “Methods and compositions for treating cystic fibrosis” (priority 1997, dated 1999).
“Also recorded” adds a separate entry of the source.

Legend:
ΔF508-CFTR (CFT1 cells) = assay: SPQ assay, cAMP-stimulated Cl- channel activity, CFT1 cells; format: cell-based, human
Experimental: The cAMP-dependent CFTR Cl^- channel activity was assessed using the halide-sensitive fluorophore 6-methoxy-N-(3-sulfopropyl)-quinolinium (SPQ) essentially as described previously (Cheng et al., (1995), supra.; Marshall et al., supra.). Briefly, the cells were treated with different amounts of DSG for the times specified. At the end of the treatment period, the cells were loaded with SPQ by hypotonic shock for 4 min at room temperature. SPQ fluorescence initially was quenched by incubating the cells for up to 30 min in a NaI buffer (135 mM NaI, 2.4 mM K2 HPO4, 0.6 mM KH2 PO4, 1 mM MgSO4, 1 mM CaSO4, 10 mM dextrose, and 10 mM N-2 hydroxyethylpiperazine-N'2-ethanesulfonic acid, pH 7.4). After measuring the baseline fluorescence (Fo) for 2 min., the NaI solution was replaced with one containing 135 mM NaNO3, and fluorescence was measured for another 16 min. […]
An increase in halide permeability is reflected by a more rapid increase in SPQ fluorescence. […] Differences in absolute levels reflect quantitative differences between groups in SPQ loading, size of cells, or number of cells studied. The data are presented as means± SE of fluorescence at time t (Ft) minus the baseline fluorescence (Fo, the average fluorescence measured in the presence of I^- for 2 min. before ion substitution) and are representative of results obtained under each condition. […]

[1] = toxicity of DSG to C127-ΔF508-low cells; format: cell-based, murine; details: mouse, read-out: concentrations toxic to the cells
Excerpt: (§1) C127-ΔF508-low (mouse mammary tumor) is a recombinant cell line stably transfected with the cDNA encoding the mutant ΔF508-CFTR (Cheng et al. (1995), supra.; Marshall et al. (1994), J. Biol. Chem. 269: 2987-2995). […] C127-mock is a cell line that has been stably transfected with the backbone of the expression vector used to generate C127-ΔF508-low (Cheng et al. (1995), supra.). LLCPK1 -ΔF508 (pig kidney epithelial) is a recombinant cell line stably expressing low levels of the mutant ΔF508-CFTR protein (Marshall et al., supra.). The details of the generation, characterization and routine propagation of these cell lines has been described (Cheng et al. (1995), supra.; Marshall et al., supra.).
(§2) Cells were treated with up to 100 μg/ml of DSG for up to 72 h. Concentrations of DSG >50 μg/ml were toxic to most of the cell types tested. Since DSG is modified by polyamine oxidase present in fetal bovine serum (Tepper et al., supra.), cells were routinely replenished with fresh medium containing DSG and aminoguanidine every 24 h. As a control in some experiments, C127 cells were also treated with 5 mM sodium butyrate for 24 h. to enhance expression of ΔF508-CFTR (Cheng et al. (1995), supra.). As another control, cells were cultured at 23° C. for 24 to 48 h. to facilitate folding of the mutant ΔF508-CFTR at the ER.

[2] = test system: ΔF508-CFTR (C127-ΔF508-low cells); assay: SPQ halide efflux assay, cAMP-stimulated Cl- channel activity, C127-ΔF508-low cells; format: cell-based
Experimental: The cAMP-dependent CFTR Cl^- channel activity was assessed using the halide-sensitive fluorophore 6-methoxy-N-(3-sulfopropyl)-quinolinium (SPQ) essentially as described previously (Cheng et al., (1995), supra.; Marshall et al., supra.). Briefly, the cells were treated with different amounts of DSG for the times specified. At the end of the treatment period, the cells were loaded with SPQ by hypotonic shock for 4 min at room temperature. SPQ fluorescence initially was quenched by incubating the cells for up to 30 min in a NaI buffer (135 mM NaI, 2.4 mM K2 HPO4, 0.6 mM KH2 PO4, 1 mM MgSO4, 1 mM CaSO4, 10 mM dextrose, and 10 mM N-2 hydroxyethylpiperazine-N'2-ethanesulfonic acid, pH 7.4). After measuring the baseline fluorescence (Fo) for 2 min., the NaI solution was replaced with one containing 135 mM NaNO3, and fluorescence was measured for another 16 min. Forskolin (20 μM) and 3-isobutyl-1-methyl-xanthine (IBMX) (100 μM) were added 5 min after the anion substitution to increase intracellular levels of cAMP.
An increase in halide permeability is reflected by a more rapid increase in SPQ fluorescence. It is the rate of change rather than the absolute change in signal that is the important variable in evaluating anion permeability. Differences in absolute levels reflect quantitative differences between groups in SPQ loading, size of cells, or number of cells studied. The data are presented as means± SE of fluorescence at time t (Ft) minus the baseline fluorescence (Fo, the average fluorescence measured in the presence of I^- for 2 min. before ion substitution) and are representative of results obtained under each condition.
For each experiment, between 50 to 100 cells were examined on a given day and studies under each condition were repeated on at least two days. For each experiment, the responses were compared with those obtained with control or untreated cells. […] Under the conditions specified above, control cells were unresponsive to added cAMP agonists. There was a broad spectrum in the rate of change in SPQ fluorescence observed with responsive cells. Normally, cells were scored as responsive if they generated a minimum of a […] change in the rate of increase in SPQ fluorescence following stimulation with cAMP agonists. Because the response was heterogenous, the data shown are for the 10% of cells in each experiment showing the greatest response.
A bovine-papilloma virus based eukaryotic expression vector (pBPV-CFTR-ΔF508) containing the gene for ΔF508 CFTR and neomycin resistance were transfected into C127 cells. The C127 cells are murine mammary cells which were obtained from ATCC (#CRL 1616). The expression of the mutant ΔF508 protein and neomycin was driven using a metallothionein promoter. Following transfection, clonal cells resistant to G418 were isolated and cells expressing the mutant ΔF508 protein were subsequently identified using antibodies specific for CFTR (mAb-13-1). The cells expressing the mutant ΔF508 CFTR protein were maintained in Dulbecco's modified eagle media (DMEM) supplemented with glutamine and fetal calf serum.
as §1
Cells were treated with up to 100 μg/ml of DSG for up to 72 h. Concentrations of DSG >50 μg/ml were toxic to most of the cell types tested. […]

[3] = toxicity of DSG to cells in culture; format: cell-based; details: up to 72 h; read-out: concentrations toxic to most of the cell types tested
Experimental: as §2
CFT1 and JME/CF15 are two immortalized human CF airway epitheliavarill lines which contain the ΔF508 variant (Jefferson et al. (1990), Am. J. Physiol. 259: L496-L505; Yankaskas et al., (1993), Am. J. Physiol. 264: C1219-C1230). Cells were treated with up to 100 μg/ml of DSG for up to 72 h. Concentrations of DSG >50 μg/ml were toxic to most of the cell types tested. Since DSG is modified by polyamine oxidase present in fetal bovine serum (Tepper et al., supra.), cells were routinely replenished with fresh medium containing DSG and aminoguanidine every 24 h. As a control in some experiments, cells were cultured at 23° C. for 24 to 48 h. to facilitate folding of the mutant ΔF508-CFTR at the ER. […]

## N=C(N)NCCCCCCC(=O)NC(O)C(=O)NCCCCNCCCN (stereo not drawn) [DSG, deoxyspergualin]
ΔF508-CFTR (CFT1 cells)
  cAMP-stimulated Cl- channel activity, in words: very similar results
[1]
  MCC at 72 h: > 50 µg/mL
[2]; C127-mock cells, DSG treated
  response in mock transfected cells: No response was observed
[2]; C127-ΔF508-low cells, SPQ, average of 5 experiments
  cells generating a measurable response: Approximately 17%
[2]; C127-ΔF508-low cells, DSG 10-100 μg/ml, sodium butyrate 5 mM 24 h, spermidine 5 μg/ml 72 h
  cAMP-stimulated change in SPQ fluorescence / Cl- channel activity, in words: marginal; also recorded: resulted in the appearance of functional cAMP-stimulated CFTR Cl^- channel activity at the cell surface; also recorded: gave a rapid change in fluorescence following stimulation with forskolin; also recorded: More optimal responses were observed in cells that were treated with lower concentrations of DSG compared to higher concentrations of DSG; also recorded: restored cAMP-stimulated anion efflux albeit to a lesser extent than was observed with sodium butyrate treatment; also recorded: less than that obtained with sodium butyrate
[3]
  MCC at 72 h: > 50 µg/mL
